Marks after values point to notes of the source that are not given here.
Key:
[1] = tested on: AAV-A53T α-synuclein rat model; assay: Cylinder test of spontaneous forelimb use; assay type: in vivo
Description: (§1) Institutional Animal Care and Use Committee and conducted in accordance with the National Institutes of Health Guide for the Care and Use of Laboratory Animals. Adult male Sprague-Dawley rats (Envigo), 250 to 300 g at the time of surgery, were housed three per cage with ad libitum access to food and water during a 12-hour light/dark cycle. All surgeries were performed under general anesthesia using a mixture of ketamine (100 mg/kg, i.p.) and xylazine (10 mg/kg, i.p.). Once animals were anesthetized, the head was shaved and surgically prepped with Betadine solution and alcohol before being placed in a Kopf stereotaxic frame with the incisor bar set at approximately 3.5 mm below horizontal zero to achieve a flat skull position. The skin on the top of the skull was cut along the midline and retracted. […] Following a 5 minute wait period after completion of the injection, the needle was slowly withdrawn, the skin wound was closed, and post-surgery analgesia (meloxicam 1 mg/kg) was administered. Some rats were randomly assigned to receive daily GM1 ganglioside (porcine brain derived GM1, 30 mg/kg, i.p., Qilu Pharmaceutical Co., Ltd.) or similar volume saline injections beginning 24 hours after AAV-A53T-synuclein surgery and lasting for 6 weeks (early start group). Other animals were randomly assigned to receive daily GM1 ganglioside (porcine brain derived GM1, 30 mg/kg, i.p., Qilu Pharmaceutical Co.) or similar volume saline injections beginning 3 weeks after AAV-A53T-synuclein surgery and lasting for 5 weeks (delayed start group). […] At the conclusion of the study, animals were euthanized, fresh brains were rapidly removed, and two to three striatal samples from both sides were dissected and immediately frozen for later analyses. The remainder of the brain (including the striatum beginning at the level of the decussation of the anterior commissure) was submersion fixed in 4% paraformaldehyde.
Forelimb use during explorative activity was analyzed using the cylinder test. The test apparatus consisted of a clear Plexiglass cylinder of approximately 33 cm diameter and 50 cm height placed in a dimly lit room in front of a mirror in order to visualize limb use from all angles. Each session was videotaped for later analysis by an observer blind to the animal's experimental group. The paw contralateral to the side of the AAV-A53T-α-synuclein injection was marked prior to the start of each test session to definitively determine laterality on videotapes. The test was performed in the late afternoon prior to the onset of the dark cycle. At each test session, the animal was gently placed in the cylinder and movements were videotaped for 10 minutes. Forelimb use was assessed by scoring weight-bearing contacts on the cylinder wall with the ipsilateral, contralateral (relative to the AAV-A53T-α-synuclein-injected side), and both paws. Twenty observations of the paw placements on the cylinder wall were scored. Limb placement on the wall was scored only if it occurred after the animal returned to a resting position and reared again to touch the cylinder wall. Percent ipsilateral (ipsi) and contralateral (contra) paw touches were calculated as [(ipsi+1/2 both)/total #observations]*100 and [(contra+1/2 both)/total #observations]*100, respectively. The cylinder test was performed prior to surgery (baseline) and at 3 and 6 weeks after surgery for the immediate start GM1 groups and at 3 and 8 weeks after surgery for the delayed start GM1 groups.

[2] = tested on: AAV-A53T α-synuclein rat model; assay: Striatal dopamine and metabolite levels (UHPLC, electrochemical detection); assay type: in vivo; settings: for DA / DOPAC: striatum
Description: as §1
Striatal samples were sonicated cold in 0.4 M perchloric acid for 10 seconds and centrifuged at 13,000 rpm for 10 min at 4° C. The supernatant was removed and was diluted 1:4 with Milli-Q ultrapure water (resistivity 18.2 MΩ·cm) containing internal standard (isoproterenol, 4 ng). The diluted samples were centrifuged again at 13,000 rpm for 5 min at 4° C. Samples were kept on ice prior to loading into the refrigerated (4° C.) autosampler integrated with the HPLC system. An ALEXYS UHPLC system (Antec Scientific) with electrochemical detection (Decade Elite electrochemical detector with a glassy carbon electrode) was used for the analyses. […] The mobile phase (pH 3.0) consisted of 100 mM phosphoric acid, 100 mM citric acid, 0.1 mM EDTA.Na2, 600 mg/L octanesulfonic acid sodium salt, and 8% acetonitrile. Pump flow rate was 50 μl/min. The analytes were detected at an oxidation potential of 600 mV against a reference electrode at 0 mV. Data were acquired and processed using Clarity software (v7.4.1) (DataApex). Peak heights were compared against internal standard curves to determine the concentrations of DA and metabolites in each sample.

[3] = delayed start GM1, 8 weeks after AAV-A53T
[4] = early start GM1, 6 weeks after AAV-A53T
[5] = AAV-A53T/Early GM1, injected side
[6] = AAV-A53T/Early GM1, non-injected side

GM1 ganglioside was tested, and the “percent ipsilateral forelimb use” value ([1]; delayed start GM1 30 mg/kg/day i.p. from week 3 for 5 weeks, week 8) was 61.5±2.7%, the “percent ipsilateral limb use” value ([1]; delayed start GM1 group, baseline (prior to surgery and GM1)) was 50.0±2.0% and the “percent ipsilateral forelimb use” value ([1]; delayed start GM1 group, week 3, just prior to receiving GM1) was 74.9±2.8%. The “percent ipsilateral limb use” value ([1]; early start GM1 30 mg/kg/day i.p. from 24 h after AAV-A53T, 3 weeks, mean±SEM) was 67.1±3.7%, the “percent ipsilateral limb use” value ([1]; early start GM1 30 mg/kg/day i.p. from 24 h after AAV-A53T, 6 weeks, mean±SEM) was 56.0±2.5% and the “percent ipsilateral limb use” value ([1]; early start GM1 group, baseline (prior to surgery and GM1), mean±SEM) was 50.1±1.8%. For the same substance, the “DOPAC levels on the injected side, % of non-injected side” value [2, 3] was 82.0±8.4%, the “DOPAC/DA ratio on the injected side, % of contralateral side” value [2, 3] was 150.0±10.9% and the “striatal DA levels on the injected side, % of contralateral side” value [2, 3] was 55.0±3.9%. The “DOPAC/DA ratio on the injected side, % of contralateral side” value [2, 4] was 112.3±9.5%, the “striatal DA levels on the injected side, % of contralateral side” value [2, 4] was 64.0±3.5% and the DA ([2]; AAV-A53T/Delayed GM1, injected side) was 5.87 ± 0.47^b μg/g wet tissue. The DOPAC ([2]; AAV-A53T/Delayed GM1, injected side, two outlier samples removed) was 0.93 ± 0.12^ μg/g wet tissue, the DA ([2]; AAV-A53T/Delayed GM1, non-injected side) was 10.73 ± 0.54 μg/g wet tissue and the DOPAC ([2]; AAV-A53T/Delayed GM1, non-injected side, two outlier samples removed) was 1.18 ± 0.10^ μg/g wet tissue. For the same substance, the DA [2, 5] was 7.29 ± 0.45^a μg/g wet tissue, the DOPAC [2, 5] was 0.85 ± 0.09 μg/g wet tissue and the DA [2, 6] was 11.43 ± 0.32 μg/g wet tissue. For the same substance, the DOPAC [2, 6] was 1.33 ± 0.10 μg/g wet tissue.

From US20220226357A1, “METHODS FOR TREATING NEURODEGENERATIVE DISORDERS” (THOMAS JEFFERSON UNIVERSITY, priority 2019, published 2022)
